From patent US20250099517A1, “Use of Lactobacillus reuteri Y7 strain for prevention or treatment of ocular diseases” (Taipei Medical University, priority 2023, published 2025) come the findings set out here.

Data set [1] is described as follows: water intakes of mice during the experiment. The data set is classed as in vivo, C57BL/6 mice. The following applies: LU, lutein 6.15 mg/kg bw oral daily, blue light, Mean±S.E.M., n=6. As for the experimental part:
In the present invention, six-week-old male C57BL/6 mice were placed in a breeding cage in which the following feeding conditions were kept: temperature, 22±2° C., humidity, 55±5%, and the light-dark cycle of 12-hour light and 12-hour dark. The mice were fed with fodders at the adaptive phase for one week; general solid fodders for test animals were administered to mice of the control group and mice during the adaptive phase. The initial day was defined as Day 0 when the adaptive phase for the mice was over. From the next week, the mice were interfered with samples under test and exposed to blue light. During the experiments, the mice were monitored for weights as well as water intakes and checked for any physiological change. The data for experiments through electroretinography (ERG), fndus photography (FP), fundus fluorescein angiograph (FFA), spectral-domain optical coherence tomography (SD-OCT) and intraocular pressure (IOP) were collected at Day 0, Day 21 and Day 35, as shown in FIG. 1 for the experimental process. The C57BL/6 mice, which weighed between 23 and 25 g, were divided into seven groups randomly. In each group, the six mice induced by blue light successfully were incorporated in experiments. The samples dissolved in deuterium-depleted water (DDW) were fed to mice through oral tubes once a day. The groups were named and introduced as follows: • (1) Solvent not classified group (NC): The mice were fed with 0.2 ml deuterium-depleted water (DDW) through tubes; • (2) Negative control group (Blue light (BL)): The mice were fed with 0.2 ml deuterium-depleted water (DDW) through tubes and exposed to blue light; • (3) Low-dosage Y7 probiotics group […]): The mice were fed with low-dosage Y7 probiotics (probiotic counts of 1.0×10^8 CFU/ml dissolved in 0.2 ml DDW per day) and exposed to blue light; • (4) High-dosage Y7 probiotics group […]): The mice were fed with high-dosage Y7 probiotics (probiotic counts of 1.0×10^9 CFU/ml dissolved in 0.2 ml DDW per day) and exposed to blue light; • (5) Positive control group (lutein (LU)): The mice were fed with lutein and exposed to blue light. The recommended human dosage of lutein is 30 mg. The mouse cage (48×25×20 cm) placed inside a stainless ventilated box was equipped with blue light boards as blue light sources around and above. In the experiment of animals exposed to blue light, six-week-old mice staying in the mouse cage were fed with drinking water as well as fodders and exposed to 400 Lux blue light illumination under the light-dark cycle of 12-hour light and 12-hour dark. The experiment was aimed at causing mice' late dry macular disease induced by chronic light injuries for simulating a human being's macular disease after long-term exposure to short-wavelength blue light from 3C products in daily life. All data written as the form of mean±standard error of the mean (S.E.M.) were used in the statistical analysis through the one-way ANOVA and the Newman-Keuls test; p<0.05 denoted statistical difference. In the experiment, the software for the statistical analysis was Graph pad Prism (v9.2.0). The data such as food intake, water intake, body weight, organ weight and other clinical examination data were analyzed with the one-way ANOVA.

The test system of data set [2] is Occludin, Claudin-1, ZO-1 gene expression. The data set is described as follows: q-PCR of tight junction gene expression in buccal mucosas. The data set is classed as in vivo, C57BL/6 mice. The following applies: Y7H high-dosage group, p<0.05. An excerpt:
The C57BL/6 mice, which weighed between 23 and 25 g, were divided into seven groups randomly. In each group, the six mice induced by blue light successfully were incorporated in experiments. The samples dissolved in deuterium-depleted water (DDW) were fed to mice through oral tubes once a day. […] Then, the real-time quantitative polymerase chain reaction was enabled to detect gene expressions related to inflammatory hormones and apoptosis such as TNF-α, IL-1B, IL-6, Bax, Bcl-2, Caspase1, Caspase3 and NLRP3 for comparisons with the endogenous level of β-actin, GAPDH or 18S rRNA. […] The gene expressions related to tight junctions of mice' eyes, buccal mucosas and colons after induction of blue light were analyzed through q-PCR and shown in FIG. 10a, FIG. 10d and FIG. 10g for Occludin, FIG. 10b, FIG. 10e and FIG. 10h for Claudin-1 and FIG. 10c, FIG. 10f and FIG. 10i for ZO-1, respectively.

For `CC1=C[C@H](O)CC(C)(C)[C@H]1/C=C/C(C)=C/C=C/C(C)=C/C=C/C=C(C)/C=C/C=C(C)/C=C/C1=C(C)C[C@@H](O)CC1(C)C` [lutein, reference compound], the “water intakes of mice” value worked out at 3.69 ± 0.86 in data set [1] (Day7); 4.17 ± 1.05 in data set [1] (Day14); 4.71 ± 0.42 in data set [1] (Day21); 3.65 ± 0.61 in data set [1] (Day28); 3.88 ± 0.31 in data set [1] (Day35).

For the molecule “Lactobacillus reuteri Y7 [Y7 probiotics]”, the “gene expressions of ZO-1 compared with NC, BL or LU groups” value in data set [2] is given as “increased significantly”.
